Data as given in patent publication US12419875B2, “Use of Axitinib and analogs thereof in preparing blood-brain barrier permeability regulator” (ZHEJIANG UNIVERSITY, priority 2018, dated 2025).

Tested on: pathological blood-brain barrier (bEnd.3 cells with tumor cell culture)
Test: Tumor cell culture co-incubated with bEnd.3 cells (U87MG removed), FITC-dextran transmembrane transport
Format: cell-based
Conditions: tumor cell culture kept, 10 μM, 24 hours, FIG. 16
Experimental: FIG. 16: Co-incubation of a tumor cell culture and bEnd.3 cells in vitro, and FITC-dextran transmembrane transport efficiency. A Transwell model of co-incubation of brain microvascular endothelial cells bEnd.3 and glioma cells U87 MG simulates a pathological blood-brain barrier. Once a pathological blood-brain barrier model was formed, U87MG glioma cells in the outer chamber of Transwell were removed, while the tumor cell cultures were remained. Axitinib (10 μM) and an Axitinib analog of phosphatidylinositol kinase (PI3K) inhibitor LY294002 (10 μM) were added to the Transwell chamber. After 24 hours, the Transwell chamber and the outer chamber were cleaned with PBS, and a FITC-dextran solution in HBSS was added to the Transwell chamber, and was allowed to act for 4 hours. The result as shown in the figure was the FITC-dextran concentration of the Transwell outer chamber as detected by a fluorescence spectrophotometer. […]
The physiological blood-brain barrier and the pathological blood-brain barrier as constructed in Method 1 and Method 2 in the Example 1 were used as models, respectively. […] After the cells were incubated at 37° C. in the dark for 4 hours, concentration of FITC-dextran transferred to the outer chamber via the Transwell chamber was detected with a fluorescence spectrophotometer.

Compound: CNC(=O)c1ccccc1Sc1ccc2c(/C=C/c3ccccn3)n[nH]c2c1 [Axitinib, N-methyl-2-((3-((1E)-2-(pyridine-2-yl)ethenyl)-1H-indazol-6-yl)sulfanyl)benzamide]
- FITC-dextran transmembrane transport (blood-brain barrier permeability): blood-brain barrier permeability is reduced
